Source: patent US12410160B2 (Gilead Sciences, Inc., priority 2021, dated 2025)
Read-outs that look alike come from different tables or passages of the source.

Experiments:
[1] = system: HepG2 cells; assay: F1P Cell-Based Assay (EC50), 13C6-fructose-1-phosphate in HepG2 cells (cell culture medium or 50% human plasma)
Description: F1P Cell-Based Assay (EC50)
Compounds were serially diluted (1:3) in DMSO. The LabCyte ECHO Acoustic dispenser system was used to pre-spot the assay plates (Greiner, Catalog #781091) with 400 nL (200-fold final dilution in 80 μL assay volume) of compound. 25,000 cells/well HepG2 cells (ATCC Catalog #HB-8065) were plated in a 40 μL volume/well in DMEM medium with 4.5 g/L glucose, 1× Penicillin-Streptomycin-Glutamine, and 10% FBS, using a BioTEK dispenser in a biological hood and incubated overnight at 37° C., 5% CO2, 90% humidity. 40 μL/well serum free assay medium (for F1P assay in cell culture medium), or 40 μL/well 100% human plasma (for F1P assay in 50% human plasma) were then added to the plates on the following day, and incubated for 1 hour at 37° C., 5% CO2, 90% humidity. ^13C6-labelled fructose (Sigma, Catalog #587621) in sterile PBS was added to the plates at a final concentration of 5 mM. The plates were incubated for 2 hours at 37° C., 5% CO2, 90% humidity. The assay was quenched by washing the cells with sterile PBS and adding 60 μL/well of 80% (v/v) methanol, 2 mM ammonium acetate and 2.5 μM Crotonyl-CoA, using a BioTEK washer-dispenser system. The plates were then sealed and stored in the −80° C. freezer until ready for RapidFire readout. ^13C6-fructose-1-phosphate in individual wells was quantified using the Agilent RapidFire High-Throughput MS system in negative mode using a […]. Mobile Phase 1 consisted of 20 mM ammonium acetate with 0.05% acetic acid in 100% methanol. Mobile phase 2 consisted of 5 mM octylamine in water (pH adjusted to 5 using acetic acid). F1P signals in individual wells were normalized by crotonyl CoA internal control.

[2] = target: human KHK-C (Homo sapiens (Human), UniProt P50053); assay: KHK Biochemical Assay (IC50), ADP-Glo, KHK-C; details: average of at least two separate assays
Procedure, shortened: (§1)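 Luminescent ADP-Glo read-out of ADP made by His-tagged KHK (BL21 (DE3) expression, Ni-NTA). Enzyme and compound sat together 30 min before ATP/fructose addition, then reacted 4 h at RT in Hepes pH 7.4 buffer with KCl, MgCl2, Triton-X. Quench 1 h, detection 1 h.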

[3] = target: human KHK-A (Homo sapiens (Human), UniProt P50053); assay: KHK Biochemical Assay (IC50), ADP-Glo, KHK-A; details: ADP-Glo; average of at least two separate assays
Procedure, shortened: as §1

[4] = Homo sapiens, HepG2, HepG2 cells, 50% human plasma, read-out: F1P 50% HP EC50
[5] = Homo sapiens, HepG2, read-out: F1P 10% FBS EC50, HepG2 cells, cell culture medium (10% FBS)

Chain of human KHK-C (P50053 whole entry): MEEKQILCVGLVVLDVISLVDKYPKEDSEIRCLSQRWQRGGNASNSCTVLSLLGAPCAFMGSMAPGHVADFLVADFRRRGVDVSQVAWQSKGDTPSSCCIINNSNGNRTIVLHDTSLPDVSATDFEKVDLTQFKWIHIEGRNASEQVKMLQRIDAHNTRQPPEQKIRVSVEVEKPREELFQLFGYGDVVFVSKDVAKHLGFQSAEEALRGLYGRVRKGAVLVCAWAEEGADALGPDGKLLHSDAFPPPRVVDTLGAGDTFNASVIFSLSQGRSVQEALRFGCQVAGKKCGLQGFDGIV
Chain of human KHK-A (P50053 other isoform, or with tags, fused parts or gaps): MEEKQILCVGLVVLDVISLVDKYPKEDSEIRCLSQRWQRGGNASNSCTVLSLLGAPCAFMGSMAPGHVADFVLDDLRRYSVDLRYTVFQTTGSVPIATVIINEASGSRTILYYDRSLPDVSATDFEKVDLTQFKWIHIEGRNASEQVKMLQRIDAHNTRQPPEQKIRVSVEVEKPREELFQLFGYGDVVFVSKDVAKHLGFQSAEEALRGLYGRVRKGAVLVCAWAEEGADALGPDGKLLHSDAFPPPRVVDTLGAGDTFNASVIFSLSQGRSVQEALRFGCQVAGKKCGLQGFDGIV

Row | Compound | EC50 [1, 4] [nM] | EC50 [1, 5] [nM] | also measured
1 | C[C@H]1[C@H](O)CN1c1nc(-c2ccc3c(c2)CC[C@]32COC(=O)N2)c2c(n1)C(F)(F)CC2 (single isomer, unassigned) [Example 475] | 207 | 104 | IC50 [2]: 15 nM
2 | COc1cc(-c2nc(N3C[C@@H](O)[C@@H]3C)nc3c2CCC3(F)F)cc2c1[C@H](NS(C)(=O)=O)CO2 (single isomer, unassigned) [Example 478] |  | 28.5 | EC50 ([1]; HepG2 cells, 50% human plasma, read-out: F1P 50% HP EC50): 55.5 nM; IC50 [2]: 2.9 nM
3 | C[C@H]1[C@H](O)CN1c1nc(-c2ccc(OC(F)F)c(S(C)(=N)=O)c2)c2c(n1)C(F)(F)CC2 (some centres unmarked) [Example 532] | 55.1 | 5.1 | 
4 | C[C@H]1[C@H](O)CN1c1nc(-c2ccc3c(c2)OC(C(F)F)CNC3=O)c2c(n1)C(F)(F)CC2 (stereo partly drawn) [Example 597, 8-(7,7-difluoro-2-((2S,3R)-3-hydroxy-2-methylazetidin-1-yl)-6,7-dihydro-5H-cyclopenta[d]pyrimidin-4-yl)-2-(difluoromethyl)-3,4-dihydrobenzo[f][1,4]oxazepin-5(2H)-one] | 34.4 | 16 | 
5 | C[C@H]1[C@H](O)CN1c1nc(-c2ccc3c(c2)C(NS(C)(=O)=O)CO3)c2c(n1)C(F)(F)CC2 (some centres unmarked) [Example 613] | 26 | 14.5 | 
6 | C[C@H]1[C@H](O)CN1c1nc(-c2cccc(-n3cnnc3)c2)c2c(n1)C(F)(F)CC2 [Example 619, (2S,3R)-1-(4-(3-(4H-1,2,4-triazol-4-yl)phenyl)-7,7-difluoro-6,7-dihydro-5H-cyclopenta[d]pyrimidin-2-yl)-2-methylazetidin-3-ol] | > 500 | 77.3 | 
7 | CCS(=O)(=O)N[C@H]1COc2cc(-c3nc(N4C[C@@H](O)[C@@H]4C)nc4c3CCC4(F)F)ccc21 [Example 624, N—((R)-6-(7,7-difluoro-2-((2S,3R)-3-hydroxy-2-methylazetidin-1-yl)-6,7-dihydro-5H-cyclopenta[d]pyrimidin-4-yl)-2,3-dihydrobenzofuran-3-yl)ethanesulfonamide] | 282 | 129 | 
8 | C[C@H]1CCN1c1nc(-c2cn(C3CNC3)nn2)c2c(n1)C(F)(F)CC2 [Example 653, 4-[1-(azetidin-3-yl)triazol-4-yl]-7,7-difluoro-2-[(2S)-2-methylazetidin-1-yl]-5,6-dihydrocyclopenta[d]pyrimidine] | 10.3 | 11 | 
9 | C[C@H]1CCN1c1nc(-c2cccc(-n3ccnn3)c2)c2c(n1)C(F)(F)CC2 [Example 654, 7,7-difluoro-2-[(2S)-2-methylazetidin-1-yl]-4-[3-(triazol-1-yl)phenyl]-5,6-dihydrocyclopenta[d]pyrimidine] | 214 | 129 | 
10 | C[C@H]1CCN1c1nc(-c2ccc(-n3ccnn3)cc2)c2c(n1)C(F)(F)CC2 [Example 655, 7,7-difluoro-2-[(2S)-2-methylazetidin-1-yl]-4-[4-(triazol-1-yl)phenyl]-5,6-dihydrocyclopenta[d]pyrimidine] | 236 | 46.2 | 
11 | N#C[C@H]1CCN1c1nc(-c2ccc([C@@H](N)C(F)F)cc2)c2c(n1)C(F)(F)CC2 [Example 660, (2R)-1-[4-[4-[(1R)-1-amino-2,2-difluoro-ethyl]phenyl]-7,7-difluoro-5,6-dihydrocyclopenta[d]pyrimidin-2-yl]azetidine-2-carbonitrile] | 26.7 | 19.8 | 
12 | C[C@H]1[C@H](O)CN1c1nc(-c2ccc3c(c2)CCS3(=N)=O)c2c(n1)C(F)(F)CC2 (stereo partly drawn) [Example 664, (2S,3R)-1-[7,7-difluoro-4-(1-imino-1-oxo-2,3-dihydrobenzothiophen-5-yl)-5,6-dihydrocyclopenta[d]pyrimidin-2-yl]-2-methyl-azetidin-3-ol] |  |  | EC50 ([1]; Homo sapiens, HepG2, read-out: F1P 10% FBS EC50): 80.2 nM; EC50 ([1]; Homo sapiens, HepG2, read-out: F1P 50% HP EC50): 78.6 nM
13 | C[C@H]1[C@H](O)CN1c1nc(-c2ccc3c(c2)S(=O)(=O)CC3NS(C)(=O)=O)c2c(n1)C(F)(F)CC2 (stereo partly drawn) [Example 665, N-[6-[7,7-difluoro-2-[(2S,3R)-3-hydroxy-2-methyl-azetidin-1-yl]-5,6-dihydrocyclopenta[d]pyrimidin-4-yl]-1,1-dioxo-2,3-dihydrobenzothiophen-3-yl]methanesulfonamide] | 88.4 | 52.7 | 
14 | C[C@H]1[C@H](O)CN1c1nc(-c2cccc(N=S3(=O)CCOCC3)c2)c2c(n1)C(F)(F)CC2 [Example 673, (2S,3R)-1-[7,7-difluoro-4-[3-[(4-oxo-1,4-oxathian-4-ylidene)amino]phenyl]-5,6-dihydrocyclopenta[d]pyrimidin-2-yl]-2-methyl-azetidin-3-ol] | 75.8 | 20.3 | 
15 | C[C@H]1[C@H](O)CN1c1nc(-c2ccc3c(c2)S(C)(=O)=NC3)c2c(n1)C(F)(F)CC2 (stereo partly drawn) [Example 805, (2S,3R)-1-[7,7-difluoro-4-(1-methyl-1-oxo-3H-1,2-benzothiazol-6-yl)-5,6-dihydrocyclopenta[d]pyrimidin-2-yl]-2-methyl-azetidin-3-ol] | 74.1 | 67.9 | 
16 | CC1Cc2cc(-c3nc(N4CC[C@@H]4C)nc4c3CCC4)ccc2C1NS(C)(=O)=O (stereo partly drawn) [Example 891, N-(2-methyl-5-(2-((S)-2-methylazetidin-1-yl)-6,7-dihydro-5H-cyclopenta[d]pyrimidin-4-yl)-2,3-dihydro-1H-inden-1-yl)methanesulfonamide] |  |  | IC50 [3]: 167 nM; IC50 ([2]; ADP-Glo): 59.5 nM
17 | COC1Cc2cc(-c3nc(N4CC[C@@H]4C)nc4c3CCC4)ccc2C1NS(C)(=O)=O (stereo partly drawn) [Example 892, N-(2-methoxy-5-(2-((S)-2-methylazetidin-1-yl)-6,7-dihydro-5H-cyclopenta[d]pyrimidin-4-yl)-2,3-dihydro-1H-inden-1-yl)methanesulfonamide] |  |  | IC50 [3]: 330 nM; IC50 ([2]; ADP-Glo): 99.5 nM
18 | C[C@H]1CCN1c1nc2c(c(-c3ccc4c(c3)CC(C(F)(F)F)C4NS(C)(=O)=O)n1)CCC2 (stereo partly drawn) [Example 893, N-(5-(2-((S)-2-methylazetidin-1-yl)-6,7-dihydro-5H-cyclopenta[d]pyrimidin-4-yl)-2-(trifluoromethyl)-2,3-dihydro-1H-inden-1-yl)methanesulfonamide] |  |  | IC50 [3]: 1780 nM; IC50 ([2]; ADP-Glo): 733 nM
19 | CC1CC(NS(C)(=O)=O)c2ccc(-c3nc(N4CC[C@@H]4C)nc4c3CCC4)cc21 (stereo partly drawn) [Example 894, N-(3-methyl-5-(2-((S)-2-methylazetidin-1-yl)-6,7-dihydro-5H-cyclopenta[d]pyrimidin-4-yl)-2,3-dihydro-1H-inden-1-yl)methanesulfonamide] |  |  | IC50 [3]: 106 nM; IC50 ([2]; ADP-Glo): 20.5 nM
20 | Cc1cc(-c2nc(N3CC[C@@H]3C)nc3c2CCC3)cc2c1C(NS(C)(=O)=O)CC2 (stereo partly drawn) [Example 895, N-(7-methyl-5-(2-((S)-2-methylazetidin-1-yl)-6,7-dihydro-5H-cyclopenta[d]pyrimidin-4-yl)-2,3-dihydro-1H-inden-1-yl)methanesulfonamide] |  |  | IC50 [3]: 175 nM; IC50 ([2]; ADP-Glo): 38.1 nM
21 | NC1(c2ccc(-c3nc(N4CC[C@@H]4C(F)(F)F)nc4c3CCC4(F)F)s2)COC1 [Example 896, (R)-3-(5-(7,7-difluoro-2-(2-(trifluoromethyl)azetidin-1-yl)-6,7-dihydro-5H-cyclopenta[d]pyrimidin-4-yl)thiophen-2-yl)oxetan-3-amine] |  |  | IC50 [3]: 2.1 nM; IC50 ([2]; ADP-Glo): 1.7 nM
22 | (S)-4-(2-(2-methylazetidin-1-yl)-6,7-dihydro-5H-cyclopenta[d]pyrimidin-4-yl)pyridine-2-sulfonamide [Example 224] |  |  | IC50 [3]: 155 nM; IC50 ([2]; ADP-Glo): 114 nM

Continued, in another order:

Row | EC50 [1, 4] [nM] | EC50 [1, 5] [nM] | Compound | also measured
23 | 155 | 91.6 | COC(=O)N[C@H]1COc2cc(-c3nc(N4C[C@@H](O)[C@@H]4C)nc4c3CCC4(F)F)ccc21 [Example 814, Methyl N-[(3R)-6-[7,7-difluoro-2-[(2S,3R)-3-hydroxy-2-methyl-azetidin-1-yl]-5,6-dihydrocyclopenta[d]pyrimidin-4-yl]-2,3-dihydrobenzofuran-3-yl]carbamate] | 
24 | 138 | 64.3 | COC(=O)N[C@@H]1COc2cc(-c3nc(N4C[C@@H](O)[C@@H]4C)nc4c3CCC4(F)F)ccc21 [Example 815, Methyl N-[(3S)-6-[7,7-difluoro-2-[(2S,3R)-3-hydroxy-2-methyl-azetidin-1-yl]-5,6-dihydrocyclopenta[d]pyrimidin-4-yl]-2,3-dihydrobenzofuran-3-yl]carbamate] | 
